Laboratory results as given in the NIST ThermoML archive (doi:10.1016/j.jct.2016.03.030).

Assay: molar heat capacity at constant pressure; xn = mol fraction of the nth substance listed
Details: 100 kPa, Liquid, Small sample (50 mg) DSC

CCC[N+]1(C)CCOCC1.[Br-] [4-methyl-4-propylmorpholinium bromide] + O
molar heat capacity at constant pressure [J/K/mol]
Details | 298.15 K | 303.15 K | 308.15 K | 313.15 K | 318.15 K | 323.15 K | 328.15 K | 333.15 K | 338.15 K | 343.15 K
x1 = 0.0336 | 82.58 | 82.9 | 83.23 | 83.53 | 83.78 | 84.05 | 84.28 | 84.5 | 84.72 | 84.95
x1 = 0.0618 | 89.62 | 89.92 | 90.54 | 91.03 | 91.49 | 92.05 | 92.45 | 92.91 | 93.25 | 93.65
x1 = 0.1298 | 107.63 | 108.21 | 109.1 | 110 | 110.81 | 111.61 | 112.42 | 113.09 | 113.81 | 114.43
x1 = 0.2036 | 125.06 | 125.72 | 126.8 | 127.7 | 128.6 | 129.5 | 130.16 | 130.58 | 130.94 | 131.12
x1 = 0.2742 | 132.6 | 133.19 | 134.31 | 135.28 | 136.1 | 137.14 | 137.89 | 138.56 | 139.23 | 140.05
x1 = 0.3025 | 146.99 | 147.64 | 148.84 | 149.81 | 150.85 | 151.81 | 152.7 | 153.5 | 154.39 | 155.03

CCCC[N+]1(C)CCOCC1.[Br-] [4-butyl-4-methylmorpholinium bromide] + O
molar heat capacity at constant pressure [J/K/mol]
Details | 298.15 K | 303.15 K | 308.15 K | 313.15 K | 318.15 K | 323.15 K | 328.15 K | 333.15 K | 338.15 K | 343.15 K
x1 = 0.0363 | 87.85 | 87.9 | 88.24 | 88.5 | 88.76 | 89.02 | 89.23 | 89.41 | 89.57 | 89.8
x1 = 0.0601 | 94.21 | 94.49 | 95.08 | 95.61 | 96.11 | 96.14 | 96.74 | 97.08 | 97.24 | 97.27
x1 = 0.1242 | 111.81 | 112.44 | 113.49 | 114.39 | 115.3 | 116.21 | 117.02 | 117.79 | 118.61 | 119.34
x1 = 0.2383 | 149.98 | 150.75 | 152.16 | 153.36 | 154.56 | 155.82 | 156.95 | 158.08 | 159.21 | 160.26
x1 = 0.2569 | 154.14 | 155.11 | 156.45 | 157.64 | 158.76 | 160.03 | 161.22 | 162.27 | 163.39 | 164.51
x1 = 0.3007 | 165.4 | 166.24 | 167.67 | 168.93 | 170.11 | 171.54 | 172.72 | 173.82 | 175 | 176.09

CCCCC[N+]1(C)CCOCC1.[Br-] [4-methyl-4-pentylmorpholinium bromide] + O
molar heat capacity at constant pressure [J/K/mol]
Details | 298.15 K | 303.15 K | 308.15 K | 313.15 K | 318.15 K | 323.15 K | 328.15 K | 333.15 K | 338.15 K | 343.15 K
x1 = 0.0316 | 94.11 | 94.16 | 94.44 | 94.72 | 94.98 | 95.31 | 95.54 | 95.76 | 95.94 | 96.1
x1 = 0.0695 | 105.99 | 106.33 | 106.88 | 107.4 | 107.91 | 108.43 | 108.87 | 109.28 | 109.73 | 110.14
x1 = 0.1522 | 133.02 | 133.71 | 134.95 | 135.91 | 136.93 | 138.01 | 138.86 | 139.78 | 140.69 | 141.55
x1 = 0.2054 | 153.72 | 154.58 | 156.03 | 157.22 | 158.41 | 159.6 | 160.73 | 161.92 | 163.04 | 164.03
x1 = 0.219 | 149.69 | 150.59 | 151.97 | 153.29 | 154.54 | 155.79 | 156.96 | 158 | 159.04 | 160.08
x1 = 0.2438 | 159.53 | 160.5 | 161.93 | 163.21 | 164.56 | 165.91 | 167.26 | 168.39 | 169.59 | 170.72
x1 = 0.2754 | 165.68 | 166.67 | 168.15 | 169.64 | 170.96 | 172.28 | 173.51 | 174.92 | 176.15 | 177.39
